Reference: PMC9649612, “Molecular docking and biochemical validation of (-)-syringaresinol-4-O-β-D-apiofuranosyl-(1→2)-β-D-glucopyranoside binding to an allosteric site in monoamine transporters” (Frontiers in Pharmacology, 2022)

What was measured:
[1] = target: T1, hSERT S559A (S2 site mutant) (Homo sapiens, UniProt P31645, S559A); experiment: ASP+ binding in digitonin-permeabilized HeLa cells expressing hSERT S559A; conditions: 10 μM ASP+, read-out: SAG IC50 for binding
T1 construct: expressed in transfected cells; host or cells: HeLa (ATCC CCL-2), transient, pcDNA3.1
Method: (§1) The mutants used for this study were constructed in the WT background carried by the expression plasmids for hSERT, hDAT, or hNET under the control of CMV promotor in pcDNA3.1 vector, respectively. All mutants were generated using the Mut Express II Fast Mutagenesis Kit (Vazyme) and confirmed by full-length DNA sequencing.
(§2) HeLa cells were cultured in Dulbecco’s Modified Eagle’s Medium supplemented with 10% fetal bovine serum, 100 units/ml penicillin, and 100 μg/ml streptomycin at 37°C in a humidified 5% CO2 incubator. Cells were plated in a 6-well culture plate and grown overnight. Cells at ∼70% confluence were transfected with hSERT, hDAT, or hNET cDNA in pcDNA3.1 by lipofectamine 2000. […] After grown for additional 12–16 h, the cells were assayed for APP^+ or ASP^+ fluorescence image acquisition.
(§3) The cells expressing WT or mutants of hSERT, hDAT, or hNET were wet mounted on polylysine coated glass slides in 12-well plates and applied for the indicated treatments. […] The extent of APP^+ accumulated in the cells was determined by confocal imaging analysis. ASP^+ binding to SERT in the cell membrane was measured with digitonin-permeabilized cells ([Li M. et al., 2022a]). […] After removing excess ASP^+ by rapid washing three times, ASP^+ binding was determined by confocal imaging analysis.
(§4) Images were analyzed using Zen Blue software. […]

[2] = target: T2, hDAT A480G (S2 site mutant) (Homo sapiens, UniProt Q01959, A480G); experiment: APP+ transport in HeLa cells expressing hDAT mutant A480G; assay type: cell-based; conditions: intact HeLa cells, read-out: SAG IC50
T2 construct: expressed in transfected cells; host or cells: HeLa
T2 sequence (Q01959 whole entry A480G): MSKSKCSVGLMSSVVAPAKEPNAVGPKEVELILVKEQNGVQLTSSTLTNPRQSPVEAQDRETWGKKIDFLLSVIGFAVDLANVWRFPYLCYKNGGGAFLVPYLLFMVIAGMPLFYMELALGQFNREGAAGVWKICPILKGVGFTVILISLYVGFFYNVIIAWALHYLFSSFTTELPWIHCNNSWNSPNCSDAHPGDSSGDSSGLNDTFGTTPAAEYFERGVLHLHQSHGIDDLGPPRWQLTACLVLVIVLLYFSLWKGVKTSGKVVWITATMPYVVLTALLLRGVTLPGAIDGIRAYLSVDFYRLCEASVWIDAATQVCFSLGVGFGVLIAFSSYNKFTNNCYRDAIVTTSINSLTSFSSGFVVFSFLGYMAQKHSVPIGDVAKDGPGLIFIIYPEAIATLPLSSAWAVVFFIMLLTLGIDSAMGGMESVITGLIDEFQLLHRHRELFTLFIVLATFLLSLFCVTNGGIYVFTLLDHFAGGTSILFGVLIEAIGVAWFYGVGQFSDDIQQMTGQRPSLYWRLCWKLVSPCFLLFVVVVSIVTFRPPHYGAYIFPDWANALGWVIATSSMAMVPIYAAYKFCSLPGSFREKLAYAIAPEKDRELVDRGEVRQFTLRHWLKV
Method: as §1, §2, §3, §4

[3] = target: T3, hSERT I327A (S2 site mutant) (Homo sapiens, UniProt P31645, I327A); experiment: ASP+ binding in digitonin-permeabilized HeLa cells expressing hSERT I327A; conditions: 10 μM ASP+, read-out: SAG IC50 for binding
T3 construct: expressed in transfected cells; host or cells: HeLa (ATCC CCL-2), transient, pcDNA3.1
Method: as §1, §2, §3, §4

[4] = target: T4, hSERT Q111N (S2 site mutant) (Homo sapiens, UniProt P31645, Q111N); experiment: APP+ transport in HeLa cells expressing hSERT mutant Q111N; assay type: cell-based; conditions: 2 μM APP+ 5 min, intact HeLa cells, read-out: SAG IC50 for transport
T4 construct: expressed in transfected cells; host or cells: HeLa (ATCC CCL-2), transient, pcDNA3.1
Method: as §1, §2, §3, §4

[5] = target: T5, hDAT H477Q (S2 site mutant) (Homo sapiens, UniProt Q01959, H477Q); experiment: APP+ transport in HeLa cells expressing hDAT mutant H477Q; assay type: cell-based; conditions: intact HeLa cells, read-out: SAG IC50
T5 construct: expressed in transfected cells; host or cells: HeLa
T5 sequence (Q01959 whole entry H477Q): as the sequence (Q01959 whole entry A480G) above, with H477Q, G480A counted along it
Method: as §1, §2, §3, §4

[6] = target: T3, hSERT I327A (S2 site mutant); experiment: APP+ transport in HeLa cells expressing hSERT mutant I327A; assay type: cell-based; conditions: 2 μM APP+ 5 min, intact HeLa cells, read-out: SAG IC50 for transport
Method: as §1, §2, §3, §4

[7] = target: T6, hNET Q314A (S2 site mutant) (Homo sapiens, UniProt P23975, Q314A); experiment: APP+ transport in HeLa cells expressing hNET mutant Q314A; assay type: cell-based; conditions: intact HeLa cells, read-out: SAG IC50
T6 construct: expressed in transfected cells; host or cells: HeLa
T6 sequence (P23975 whole entry Q314A): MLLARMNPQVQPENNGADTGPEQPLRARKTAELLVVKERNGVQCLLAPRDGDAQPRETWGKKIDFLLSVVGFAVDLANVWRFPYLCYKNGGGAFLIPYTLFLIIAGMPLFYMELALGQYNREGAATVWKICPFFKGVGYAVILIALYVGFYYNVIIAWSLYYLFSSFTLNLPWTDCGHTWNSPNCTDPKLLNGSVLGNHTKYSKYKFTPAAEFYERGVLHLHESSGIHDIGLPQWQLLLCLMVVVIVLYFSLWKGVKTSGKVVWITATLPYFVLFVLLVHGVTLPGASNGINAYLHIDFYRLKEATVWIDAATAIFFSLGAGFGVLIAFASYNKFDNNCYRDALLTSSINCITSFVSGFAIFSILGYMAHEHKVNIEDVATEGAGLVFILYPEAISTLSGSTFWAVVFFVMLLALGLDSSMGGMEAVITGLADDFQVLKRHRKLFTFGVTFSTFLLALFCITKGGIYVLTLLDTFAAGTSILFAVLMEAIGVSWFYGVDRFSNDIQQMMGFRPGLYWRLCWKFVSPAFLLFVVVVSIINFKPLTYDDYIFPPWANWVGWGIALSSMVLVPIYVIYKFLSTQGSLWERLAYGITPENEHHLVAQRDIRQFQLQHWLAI
Method: as §1, §2, §3, §4

[8] = target: T1, hSERT S559A (S2 site mutant); experiment: APP+ transport in HeLa cells expressing hSERT mutant S559A; assay type: cell-based; conditions: 2 μM APP+ 5 min, intact HeLa cells, read-out: SAG IC50 for transport
Method: as §1, §2, §3, §4

[9] = target: T7, hDAT F76V (S1 site mutant) (Homo sapiens, UniProt Q01959, F76V); experiment: APP+ transport in HeLa cells expressing hDAT mutant F76V; assay type: cell-based
T7 construct: expressed in transfected cells; host or cells: HeLa
T7 sequence (Q01959 whole entry F76V): as the sequence (Q01959 whole entry A480G) above, with F76V, G480A counted along it
Method: as §1, §2, §3, §4

[10] = target: T8, hNET D473N (S2 site mutant) (Homo sapiens, UniProt P23975, D473N); experiment: APP+ transport in HeLa cells expressing hNET mutant D473N; assay type: cell-based
T8 construct: expressed in transfected cells; host or cells: HeLa
T8 sequence (P23975 whole entry D473N): as the sequence (P23975 whole entry Q314A) above, with A314Q, D473N counted along it
Method: as §1
(§5) HeLa cells were cultured in Dulbecco’s Modified Eagle’s Medium supplemented with 10% fetal bovine serum, 100 units/ml penicillin, and 100 μg/ml streptomycin at 37°C in a humidified 5% CO2 incubator. Cells were plated in a 6-well culture plate and grown overnight. Cells at ∼70% confluence were transfected with hSERT, hDAT, or hNET cDNA in pcDNA3.1 by lipofectamine 2000. Transfected cells were incubated for 24 h at 37°C with 5% CO2 and then transferred into a 12-well plate placed with polylysine coated slides. After grown for additional 12–16 h, the cells were assayed for APP^+ or ASP^+ fluorescence image acquisition.
The cells expressing WT or mutants of hSERT, hDAT, or hNET were wet mounted on polylysine coated glass slides in 12-well plates and applied for the indicated treatments. In brief, the cells were washed twice with 500 μl KRH buffer containing 20 mM HEPES, pH 7.4, 120 mM NaCl, 1.3 mM KCl, 2.2 mM CaCl2, 1.2 mM MgSO4, and 0.1% (w/v) glucose. […] Excess APP^+ was then removed by rapid washing three times with 500 μl KRH buffer. The extent of APP^+ accumulated in the cells was determined by confocal imaging analysis. ASP^+ binding to SERT in the cell membrane was measured with digitonin-permeabilized cells ([Li M. et al., 2022a]). […] After removing excess ASP^+ by rapid washing three times, ASP^+ binding was determined by confocal imaging analysis.
(§6) Images were analyzed using Zen Blue software.
Nonlinear regression fits of experimental and calculated data were performed with Origin (Origin Lab). The statistical analysis given was from multiple experiments. Data with error bars in the figures represent the mean ± SD for at least 10 measurements per condition in one experiment or the mean ± SEM from at least three experiments as indicated, respectively. […]

[11] = target: T9, hDAT V152F (S1 site mutant) (Homo sapiens, UniProt Q01959, V152F); experiment: APP+ transport in HeLa cells expressing hDAT mutant V152F; assay type: cell-based
T9 construct: expressed in transfected cells; host or cells: HeLa
T9 sequence (Q01959 whole entry V152F): as the sequence (Q01959 whole entry A480G) above, with V152F, G480A counted along it
Method: as §1, §2, §3, §4

[12] = target: T10, hSERT E494Q (S2 site mutant) (Homo sapiens, UniProt P31645, E494Q); experiment: APP+ transport in HeLa cells expressing hSERT mutant E494Q; assay type: cell-based; conditions: 2 μM APP+ 5 min, intact HeLa cells, read-out: SAG IC50 for transport
T10 construct: expressed in transfected cells; host or cells: HeLa (ATCC CCL-2), transient, pcDNA3.1
Method: as §1, §2, §3, §4

[13] = target: T11, hSERT E493N (S2 site mutant) (Homo sapiens, UniProt P31645, E493N); experiment: APP+ transport in HeLa cells expressing hSERT mutant E493N; assay type: cell-based; conditions: 2 μM APP+ 5 min, intact HeLa cells, read-out: SAG IC50 for transport
T11 construct: expressed in transfected cells; host or cells: HeLa (ATCC CCL-2), transient, pcDNA3.1
Method: as §1, §2, §3, §4

[14] = target: T12, hSERT P560G (S2 site mutant) (Homo sapiens, UniProt P31645, P560G); experiment: ASP+ binding in digitonin-permeabilized HeLa cells expressing hSERT P560G; conditions: 10 μM ASP+, read-out: SAG IC50 for binding
T12 construct: expressed in transfected cells; host or cells: HeLa (ATCC CCL-2), transient, pcDNA3.1
Method: as §1, §2, §3, §4

WT-hSERT = target: T13, WT-hSERT (Homo sapiens, UniProt P31645); experiment: APP+ transport (uptake) in HeLa cells expressing WT-hSERT; assay type: cell-based; conditions: 2 μM APP+ 5 min, SAG added 5 min prior, intact HeLa cells
T13 construct: expressed in transfected cells; host or cells: HeLa (ATCC CCL-2), transient, pcDNA3.1
Method: as §5, §3, §6
(§7) Nonlinear regression fits of experimental and calculated data were performed with Origin (Origin Lab). […]

[15] = target: T14, hSERT Q562N (S2 site mutant) (Homo sapiens, UniProt P31645, Q562N); experiment: ASP+ binding in digitonin-permeabilized HeLa cells expressing hSERT Q562N; conditions: 10 μM ASP+, read-out: SAG IC50 for binding
T14 construct: expressed in transfected cells; host or cells: HeLa (ATCC CCL-2), transient, pcDNA3.1
Method: as §1, §2, §3, §4

WT-hDAT = target: T15, WT-hDAT (Homo sapiens, UniProt Q01959); experiment: APP+ transport (uptake) in HeLa cells expressing WT-hDAT; assay type: cell-based; conditions: WT hDAT; APP+ transport, intact HeLa cells; read-out: SAG IC50
T15 construct: expressed in transfected cells; host or cells: HeLa
T15 sequence (Q01959 whole entry): as the sequence (Q01959 whole entry A480G) above, with G480A counted along it
Method: as §5, §3, §6, §7

WT-hNET = target: T16, WT-hNET (Homo sapiens, UniProt P23975); experiment: APP+ transport (uptake) in HeLa cells expressing WT-hNET; assay type: cell-based; conditions: WT hNET; APP+ transport, intact HeLa cells; read-out: SAG IC50
T16 construct: expressed in transfected cells; host or cells: HeLa
T16 sequence (P23975 whole entry): as the sequence (P23975 whole entry Q314A) above, with A314Q counted along it
Method: as §5, §3, §6, §7

[16] = target: T14, hSERT Q562N (S2 site mutant); experiment: APP+ transport in HeLa cells expressing hSERT mutant Q562N; assay type: cell-based; conditions: 2 μM APP+ 5 min, intact HeLa cells, read-out: SAG IC50 for transport
Method: as §1, §2, §3, §4

[17] = target: T17, hSERT P561G (S2 site mutant) (Homo sapiens, UniProt P31645, P561G); experiment: APP+ transport in HeLa cells expressing hSERT mutant P561G; assay type: cell-based; conditions: 2 μM APP+ 5 min, intact HeLa cells, read-out: SAG IC50 for transport
T17 construct: expressed in transfected cells; host or cells: HeLa (ATCC CCL-2), transient, pcDNA3.1
Method: as §1, §2, §3, §4

[18] = target: T18, hSERT D328A (S2 site mutant) (Homo sapiens, UniProt P31645, D328A); experiment: APP+ transport in HeLa cells expressing hSERT mutant D328A; assay type: cell-based; conditions: 2 μM APP+ 5 min, intact HeLa cells, read-out: SAG IC50 for transport
T18 construct: expressed in transfected cells; host or cells: HeLa (ATCC CCL-2), transient, pcDNA3.1
Method: as §1, §2, §3, §4

With “(-)-Syringaresinol-4-O-β-D-apiofuranosyl-(1→2)-β-D-glucopyranoside [SAG]” the IC50 [1] was 126 ± 8.1 µM, the IC50 [2] was 239 ± 14 µM and the IC50 [3] was 48.3 ± 4.6 µM. The IC50 [4] was 19.1 ± 2.2 µM, the IC50 [5] was 72.4 ± 4.8 µM and the IC50 [6] was 25.5 ± 1.2 µM. For the same substance, the IC50 [7] was 4.37 ± 1.06 µM, the IC50 [8] was 20.2 ± 1.9 µM and the IC50 ([9]; hDAT F76V (S1), intact HeLa cells, read-out: SAG IC50) was 18.2 ± 0.8 µM. For the same substance, the “Effect of mutation on SAG inhibition potency” value ([9]; hDAT S1 residue Phe76 replaced) was “little effect”, the “Change in SAG inhibition potency compared to WT” value ([10]; hNET D473N vs WT-hNET) was “little change” and the “Decrease in SAG inhibition potency compared with WT” value ([10]; hNET D473N vs WT-hNET) was “less than 3 folds”. The IC50 ([10]; hNET D473N, intact HeLa cells, read-out: SAG IC50) was 42.7 ± 4.7 µM, the “Effect of mutation on SAG inhibition potency” value ([11]; hDAT S1 residue Val152 replaced) was “little effect” and the IC50 ([11]; hDAT V152F (S1), intact HeLa cells, read-out: SAG IC50) was 26.6 ± 2.8 µM. For the same substance, the IC50 [12] was 153 ± 2 µM, the IC50 [13] was 53.2 ± 6.6 µM and the IC50 [14] was 324 ± 28 µM. For the same substance, the IC50 (WT-hSERT) was 2.54 ± 0.13 µM, the IC50 [15] was 450 ± 23 µM and the IC50 (WT-hDAT) was 31.9 ± 2.8 µM. For the same substance, the IC50 (WT-hNET) was 40.1 ± 2.8 µM, the IC50 [16] was 289 ± 11 µM and the IC50 [17] was greater than 1000 µM. The IC50 [18] was 113 ± 5 µM.
